From US20220380319A1 (Bial - R&D Investments, S.A., priority 2019, published 2022)
≈ marks a conversion by molar mass, not a printed value.

Columns and labels:
[1] = Compound solubility in water
acid ceramidase = molecular target: T1, acid ceramidase (Homo sapiens, UniProt Q13510); assay: Acid ceramidase inhibition, biochemical fluorescent assay with cell lysates overexpressing acid ceramidase, substrate Rbm14-12; details: substrate Rbm14-12 6.3 μM, pH 4.5, 1 hr preincubation at RT
T1 construct: Cell lysates overexpressing acid ceramidase were used as the enzyme source; expressed in transfected cells
T1 sequence (Q13510 22-395): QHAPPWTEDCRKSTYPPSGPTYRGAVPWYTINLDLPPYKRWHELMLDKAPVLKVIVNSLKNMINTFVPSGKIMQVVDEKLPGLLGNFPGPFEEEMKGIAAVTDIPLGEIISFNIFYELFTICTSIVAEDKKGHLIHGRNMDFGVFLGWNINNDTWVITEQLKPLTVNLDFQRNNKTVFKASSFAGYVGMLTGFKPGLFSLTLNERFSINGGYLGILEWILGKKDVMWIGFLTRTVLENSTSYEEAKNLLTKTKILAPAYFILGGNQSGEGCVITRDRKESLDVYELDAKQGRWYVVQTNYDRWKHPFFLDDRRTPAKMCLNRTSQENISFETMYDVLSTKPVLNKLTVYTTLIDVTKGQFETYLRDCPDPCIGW
Outline: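 Lysate of cells overexpressing acid ceramidase (10 μg protein) preincubated with compound dose series 1 hr at RT in 25 mM NaAC, 100 mM NaCl, pH 4.5, then reacted 1 hr with 6.3 μM Rbm14-12. Stopped with NaIO4/glycine buffer pH 10.6, fluorescence ex360/em446; IC50 by four-parameter fit.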

Row | Compound | solubility [1] [µg/mL] | IC50 (acid ceramidase) [nM]
1 | COc1nc2cc(F)c(N3CCOCC3)cc2n1C(=O)NCCOc1ccccc1 [Example 335a, 5-Fluoro-2-methoxy-6-morpholino-N-(2-phenoxyethyl)-1H-benzo[d]imidazole-1-carboxamide] | 1 (≈ 2.41 µM) | < 200
2 | COc1nc2cc(N3CCOCC3)c(F)cc2n1C(=O)NCCOc1ccccc1 [Example 335b, 6-fluoro-2-methoxy-5-morpholino-N-(2-phenoxyethyl)-1H-benzo[d]imidazole-1-carboxamide] | 7 (≈ 16.9 µM) | < 200
3 | CN1CCN(c2cccc3c2ncn3C(=O)NCC#Cc2ccc(F)cc2)CC1 [Example 336, N-(3-(4-Fluorophenyl)prop-2-yn-1-yl)-4-(4-methylpiperazin-1-yl)-1H-benzo[d]imidazole-1-carboxamide] | 15 (≈ 38.3 µM) | < 200
4 | CN1CCN(c2cccc3c2ncn3C(=O)NCC#Cc2cccc(F)c2)CC1 [Example 337, N-(3-(3-Fluorophenyl)prop-2-yn-1-yl)-4-(4-methylpiperazin-1-yl)-1H-benzo[d]imidazole-1-carboxamide] | 15 (≈ 38.3 µM) | < 200
5 | CN1CCN(c2cccc3c2ncn3C(=O)NCC#Cc2ccccc2F)CC1 [Example 338, N-(3-(2-Fluorophenyl)prop-2-yn-1-yl)-4-(4-methylpiperazin-1-yl)-1H-benzo[d]imidazole-1-carboxamide] | 18 (≈ 46 µM) | < 200
6 | COc1ccc(C#CCNC(=O)n2cnc3c(N4CCN(C)CC4)cccc32)cc1 [Example 339, N-(3-(4-Methoxyphenyl)prop-2-yn-1-yl)-4-(4-methylpiperazin-1-yl)-1H-benzo[d]imidazole-1-carboxamide] | 16 (≈ 39.7 µM) | < 200
7 | COc1cccc(C#CCNC(=O)n2cnc3c(N4CCN(C)CC4)cccc32)c1 [Example 340, N-(3-(3-Methoxyphenyl)prop-2-yn-1-yl)-4-(4-methylpiperazin-1-yl)-1H-benzo[d]imidazole-1-carboxamide] | 13 (≈ 32.2 µM) | < 200
8 | COc1ccccc1C#CCNC(=O)n1cnc2c(N3CCN(C)CC3)cccc21 [Example 341, N-(3-(2-Methoxyphenyl)prop-2-yn-1-yl)-4-(4-methylpiperazin-1-yl)-1H-benzo[d]imidazole-1-carboxamide] | 20 (≈ 49.6 µM) | < 200
9 | C#Cc1ccc(CNC(=O)n2cnc3c(N4CCN(C)CC4)cccc32)cc1 [Example 342, N-(4-Ethynylbenzyl)-4-(4-methylpiperazin-1-yl)-1H-benzo[d]imidazole-1-carboxamide] | 4 (≈ 10.7 µM) | < 200
10 | CN1CCN(CCOc2nc3ccccc3n2C(=O)NCCc2ccccc2)CC1 [Example 343] | 24 (≈ 58.9 µM) | 200 to 1000
11 | CN1CCN(C2CN(c3cccc4c3ncn4C(=O)NCC(C)(C)Oc3ccccc3)C2)CC1 [Example 344, N-(2-Methyl-2-phenoxypropyl)-4-(3-(4-methylpiperazin-1-yl)azetidin-1-yl)-1H-benzo[d]imidazole-1-carboxamide] | 29 (≈ 62.7 µM) | < 200
12 | CN1CCN(c2cccc3c2ncn3C(=O)NCC2Oc3ccccc3O2)CC1 [Example 345, N-(Benzo[d][1,3]dioxol-2-ylmethyl)-4-(4-methylpiperazin-1-yl)-1H-benzo[d]imidazole-1-carboxamide] | 40 (≈ 102 µM) | < 200
13 | CN1CCN(c2cccc3c2ncn3C(=O)NCc2ccc3c(c2)OCO3)CC1 [Example 346, N-(Benzo[d][1,3]dioxol-5-ylmethyl)-4-(4-methylpiperazin-1-yl)-1H-benzo[d]imidazole-1-carboxamide] | 11 (≈ 28 µM) | < 200
14 | CN1CCN(c2cccc3c2ncn3C(=O)NCc2ccn3cccc3c2)CC1 [Example 347, N-(Indolizin-7-ylmethyl)-4-(4-methylpiperazin-1-yl)-1H-benzo[d]imidazole-1-carboxamide] | 25 (≈ 64.4 µM) | < 200

Now from value to compound:

Row | solubility [1] [µg/mL] | IC50 (acid ceramidase) [nM] | Compound
15 | 8 (≈ 19.2 µM) | < 200 | CN1CCN(CCOc2nc3ccccc3n2C(=O)NCC#Cc2ccccc2)CC1 [Example 348, 2-(2-(4-Methylpiperazin-1-yl)ethoxy)-N-(3-phenylprop-2-yn-1-yl)-1H-benzo[d]imidazole-1-carboxamide]
16 | 37 (≈ 88.4 µM) | 200 to 1000 | CN1CCN(C2CN(c3cccc4c3ncn4C(=O)NCCc3ccccc3)C2)CC1 [Example 349, 4-(3-(4-Methylpiperazin-1-yl)azetidin-1-yl)-N-phenethyl-1H-benzo[d]imidazole-1-carboxamide]
17 | 35 (≈ 83.4 µM) | < 200 | CN1CCC2(CC1)CN(c1cccc3c1ncn3C(=O)NCCOc1ccccc1)C2 [Example 350, 4-(7-Methyl-2,7-diazaspiro[3.5]nonan-2-yl)-N-(2-phenoxyethyl)-1H-benzo[d]imidazole-1-carboxamide]
18 | 33 (≈ 78.7 µM) | < 200 | CN1CC2(CCN(c3cccc4c3ncn4C(=O)NCCOc3ccccc3)CC2)C1 [Example 351, 4-(2-Methyl-2,7-diazaspiro[3.5]nonan-7-yl)-N-(2-phenoxyethyl)-1H-benzo[d]imidazole-1-carboxamide]
19 | 2 (≈ 5.16 µM) | < 200 | CN1CCN(c2cccc3c2ncn3C(=O)NCCC#Cc2ccccc2)CC1 [Example 352, 4-(4-Methylpiperazin-1-yl)-N-(4-phenylbut-3-yn-1-yl)-1H-benzo[d]imidazole-1-carboxamide]
20 | 16 (≈ 42.2 µM) | < 200 | CN(C)C1CN(c2cccc3c2ncn3C(=O)NCCOc2ccccc2)C1 [Example 353, 4-(3-(Dimethylamino)azetidin-1-yl)-N-(2-phenoxyethyl)-1H-benzo[d]imidazole-1-carboxamide]
21 | 19 (≈ 52 µM) | > 1000 | CNC1CN(c2cccc3c2ncn3C(=O)NCCOc2ccccc2)C1 [Example 354, 4-(3-(Methylamino)azetidin-1-yl)-N-(2-phenoxyethyl)-1H-benzo[d]imidazole-1-carboxamide]
22 | 22 (≈ 64.8 µM) | 200 to 1000 | CC(C)C#CCNC(=O)n1cnc2c(N3CC(N(C)C)C3)cccc21 [Example 355, 4-(3-(Dimethylamino)azetidin-1-yl)-N-(4-methylpent-2-yn-1-yl)-1H-benzo[d]imidazole-1-carboxamide]
23 | 46 (≈ 103 µM) | < 200 | CN1CC2CC1CN2C1CN(c2cccc3c2ncn3C(=O)NCCOc2ccccc2)C1 (stereo not drawn) [Example 356, 4-(3-(5-Methyl-2,5-diazabicyclo[2.2.1]heptan-2-yl)azetidin-1-yl)-N-(2-phenoxyethyl)-1H-benzo[d]imidazole-1-carboxamide]
24 | 6 (≈ 15.2 µM) | 200 to 1000 | O=C(NCCc1ccccc1)n1c(OCCN2CCOCC2)nc2ccccc21 [Example 357, 2-(2-Morpholinoethoxy)-N-phenethyl-1H-benzo[d]imidazole-1-carboxamide]
25 | 33 (≈ 93.9 µM) | 200 to 1000 | CC(C)C#CCNC(=O)n1cnc2c(N3CC4(CN(C)C4)C3)cccc21 [Example 358, 4-(6-Methyl-2,6-diazaspiro[3.3]heptan-2-yl)-N-(4-methylpent-2-yn-1-yl)-1H-benzo[d]imidazole-1-carboxamide]
26 | 23 (≈ 65.4 µM) | 200 to 1000 | CC(C)C#CCNC(=O)n1cnc2c(N3CC4(CCN4C)C3)cccc21 [Example 359, 4-(1-Methyl-1,6-diazaspiro[3.3]heptan-6-yl)-N-(4-methylpent-2-yn-1-yl)-1H-benzo[d]imidazole-1-carboxamide]
27 | 27 (≈ 66.1 µM) | < 200 | CN1CCN(C2CN(c3cccc4c3ncn4C(=O)NCC#CC(C)(C)C)C2)CC1 [Example 360, N-(4,4-Dimethylpent-2-yn-1-yl)-4-(3-(4-methylpiperazin-1-yl)azetidin-1-yl)-1H benzo[d]imidazole-1-carboxamide]
28 | 24 (≈ 54.2 µM) | < 200 | CN1CC(N2CCN(c3cccc4c3ncn4C(=O)NCCC#Cc3ccccc3)CC2)C1 [Example 361]
29 | 23 (≈ 52 µM) | < 200 | CN1CCN(C2CN(c3cccc4c3ncn4C(=O)NCCC#Cc3ccccc3)C2)CC1 [Example 362, 4-(3-(4-Methylpiperazin-1-yl)azetidin-1-yl)-N-(4-phenylbut-3-ynyl)-1H-benzo[d]imidazole-1-carboxamide]
30 | 28 (≈ 64.9 µM) | < 200 | CN1CCN(CCOc2nc3ccccc3n2C(=O)NCCC#Cc2ccccc2)CC1 [Example 363, 2-(2-(4-Methylpiperazin-1-yl)ethoxy)-N-(4-phenylbut-3-yn-1-yl)-1H-benzo[d]imidazole-1-carboxamide]
31 | 17 (≈ 43.9 µM) | < 200 | CN(C)C1CN(c2cccc3c2ncn3C(=O)NCCC#Cc2ccccc2)C1 [Example 364, 4-(3-(Dimethylamino)azetidin-1-yl)-N-(4-phenylbut-3-ynyl)-1H-benzo[d]imidazole-1-carboxamide]
32 | 11 (≈ 27 µM) | < 200 | CN1CCN(c2cccc3c2ncn3C(=O)NCc2ccc3c(c2)OCCO3)CC1 [Example 365, N-((2,3-Dihydrobenzo[b][1,4]dioxin-6-yl)methyl)-4-(4-methylpiperazin-1-yl)-1H-benzo[d]imidazole-1-carboxamide]
33 | 21 (≈ 49.1 µM) | < 200 | CN1CCC2(CC1)CN(c1cccc3c1ncn3C(=O)NCCC#Cc1ccccc1)C2 [Example 366, 4-(7-Methyl-2,7-diazaspiro[3.5]nonan-2-yl)-N-(4-phenylbut-3-yn-1-yl)-1H-benzo[d]imidazole-1-carboxamide]
